PMC5154685 (Journal of medicinal chemistry, 2016)

Columns and labels:
[1] = biological target: Eis_Mtb acetyltransferase (Mycobacterium tuberculosis, UniProt P9WFK7); assay type: biochemical; settings: for Extent of Eis inhibition of HTS compounds (in words): follow-up description
AAC(6′)-Ie/APH(2″)-Ia = AAC(6′)-Ie/APH(2″)-Ia (Staphylococcus aureus, UniProt P0A0C1); test: Inhibitor selectivity, AAC; assay type: biochemical; settings: concentrations as high as 200 μM
AAC(2′)-Ic = AAC(2′)-Ic (Mycobacterium tuberculosis, UniProt P9WQG9); test: Inhibitor selectivity, AAC
Sequence of AAC(2′)-Ic (P9WQG9 whole entry): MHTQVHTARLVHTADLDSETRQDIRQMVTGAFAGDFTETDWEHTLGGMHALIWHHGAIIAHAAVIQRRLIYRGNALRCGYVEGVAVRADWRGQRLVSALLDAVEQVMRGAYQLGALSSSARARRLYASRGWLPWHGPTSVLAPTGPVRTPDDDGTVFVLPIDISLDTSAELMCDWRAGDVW

Sequence of Eis_Mtb acetyltransferase (P9WFK7 whole entry): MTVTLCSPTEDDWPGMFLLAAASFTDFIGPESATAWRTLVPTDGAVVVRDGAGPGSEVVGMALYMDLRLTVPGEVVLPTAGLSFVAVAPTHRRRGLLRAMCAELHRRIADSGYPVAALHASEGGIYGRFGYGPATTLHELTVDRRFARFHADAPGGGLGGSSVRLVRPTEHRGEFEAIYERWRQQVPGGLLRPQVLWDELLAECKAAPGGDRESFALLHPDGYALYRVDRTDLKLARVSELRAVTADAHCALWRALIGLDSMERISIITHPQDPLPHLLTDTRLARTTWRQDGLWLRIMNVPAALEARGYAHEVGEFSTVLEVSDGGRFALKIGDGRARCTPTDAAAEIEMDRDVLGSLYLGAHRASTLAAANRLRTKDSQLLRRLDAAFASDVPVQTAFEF
Sequence of AAC(6′)-Ie/APH(2″)-Ia (P0A0C1 whole entry): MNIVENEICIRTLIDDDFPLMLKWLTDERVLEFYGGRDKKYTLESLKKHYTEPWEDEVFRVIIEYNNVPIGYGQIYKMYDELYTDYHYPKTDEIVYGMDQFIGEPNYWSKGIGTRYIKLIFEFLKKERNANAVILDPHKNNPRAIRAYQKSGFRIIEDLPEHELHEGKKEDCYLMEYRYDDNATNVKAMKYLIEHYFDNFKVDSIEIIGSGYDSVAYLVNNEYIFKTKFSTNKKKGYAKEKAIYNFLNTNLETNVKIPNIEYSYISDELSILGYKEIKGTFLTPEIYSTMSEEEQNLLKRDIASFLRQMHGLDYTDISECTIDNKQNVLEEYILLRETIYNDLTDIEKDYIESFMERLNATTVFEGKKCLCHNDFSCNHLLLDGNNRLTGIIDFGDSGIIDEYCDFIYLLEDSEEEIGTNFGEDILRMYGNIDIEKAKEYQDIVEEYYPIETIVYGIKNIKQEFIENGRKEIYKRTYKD

Compound	Extent of Eis inhibition of HTS compounds (in words) [1]	inhibition of acetylation by AAC(6′)-Ie/APH(2″)-Ia (in words) (AAC(6′)-Ie/APH(2″)-Ia)	further results
Cc1cc(NS(=O)(=O)c2ccc3[nH]c(=O)c(=O)[nH]c3c2)ccc1Br [Compound 1]	modest Eis inhibition		
CN(c1ccc2ccccc2c1)S(=O)(=O)c1ccc2[nH]c(=O)c(=O)[nH]c2c1 [Compound 46, N-(2-Naphthyl)-N-methyl-2,3-dioxo-1,2,3,4-tetrahydro-6-quinoxalinesulfonamide]		did not inhibit	inhibition of acetylation by AAC(2′)-Ic (in words) (AAC(2′)-Ic): did not inhibit
O=c1[nH]c2ccc(S(=O)(=O)Nc3ccc(Cl)c(C(F)(F)F)c3)cc2[nH]c1=O [Compound 3]	modest Eis inhibition		
O=c1[nH]c2ccc(S(=O)(=O)Nc3ccc4c(c3)OCCO4)cc2[nH]c1=O [Compound 4]	modest Eis inhibition		
CN(c1ccc(Br)cc1)S(=O)(=O)c1ccc2[nH]c(=O)c(=O)[nH]c2c1 [Compound 29, N-(4-Bromophenyl)-N-methyl-2,3-dioxo-1,2,3,4-tetrahydro-6-quinoxalinesulfonamide]			Eis inhibition in the HTS (hit or not) [1]: hits
COc1cccc(N(C)S(=O)(=O)c2ccc3[nH]c(=O)c(=O)[nH]c3c2)c1 [Compound 39, N-(3-Methoxyphenyl)-N-methyl-2,3-dioxo-1,2,3,4-tetrahydro-6-quinoxalinesulfonamide]		did not inhibit	
